The compounds below were run on MAPK phosphorylation in PANC-1 pancreatic cancer cell line (assay: MAPK cell-based phosphorylation assay (cell-direct ELISA, EGF stimulation)). Settings: Homo sapiens.
Experimental: Cell lines: Tumor-derived pancreatic cancer cell lines PANC-1 were purchased from ATCC and were maintained according to ATCC recommendation.
Method: Cells were plated at 7500 cells/well density in 96-wells plate, starved over night, and the small molecules to be tested were added to the cells in the final concentration of 30 μM with 0.3% DMSO for 6 hours incubation at 37° C. For IC50 value determination, serial dilutions of compounds were added to cells under the same conditions. Next, cells were stimulated with 1.5 ng/ml EGF for 15 min. followed by cell fixation with 4% Formaldehyde in PBS at RT for 20 min. Phosphorylation level of MAPK was determined by Cell-direct ELISA.
Cell-direct ELISA: For each well, cells were permeabilized with PBS-Triton 0.1%, quenched with H2O2 0.6% in PBS-Triton 0.1%, and probed with anti-phospho-MAPK antibodies (R&D Systems) followed by HRP-conjugated secondary antibody (Jackson Immunoresearch, West Grove, Pa.). Next, a solution 50 μM of the fluorescent substrate AmpliFlu Red (Sigma) was added and incubated at RT for 20 min. At the end of the incubation time, fluorescence was measured at 595 nm on a microplate reader (AF2200; Eppendorf, Inc., Hamburg, Germany).

`O=C(c1csc2c(O)nc(-c3ccccn3)nc12)N1CCOC(c2cccc(F)c2)C1` (stereo not drawn) [drawing 1128] and `O=C(c1csc2c(O)nc(-c3ccccn3)nc12)N1CCOC(c2nccs2)C1` (stereo not drawn) [drawing 1129] cannot be ordered by IC50: > 30 µM for the first, > 30 µM for the second.

`COc1ccnc(-c2nc(O)c3c(Br)csc3n2)c1` [drawing 1133] and `COCc1ccc(-c2csc3c(O)nc(-c4ccccn4)nc23)cc1F` [drawing 1190] fall in the same range of IC50: 2 to 10 µM for the first, 2 to 10 µM for the second.

First: CC1CN(c2ccccc2)CCN1C(=O)c1csc2c(O)nc(-c3ccccn3)nc12 (stereo not drawn) [drawing 1143]
Second: CC(C)(C)c1ccc(-c2csc3c(O)nc(-c4ccccn4)nc23)cc1 [drawing 1191]
The IC50 of the first is higher: > 30 µM for the first, 2 to 10 µM for the second.

Going from `Oc1nc(-c2ccccn2)nc2c(-c3cc(Cl)cc(Cl)c3)csc12` [drawing 1192] to `Oc1nc(-c2ccccn2)nc2c(-c3cccc4c3OCO4)csc12` [drawing 1193], the IC50 falls from > 30 µM to < 2 µM.

Same assay, conditions: Homo sapiens, * = tested at 10 μM

First: O=C(COCc1ccncc1)Nc1nc(-c2ccccn2)nc2sccc12 [drawing 1185]
Second: Cc1cnc(-c2ccccn2)nc1NC(=O)Cc1ccc2cnccc2c1 [drawing 1198]
The inhibition at 10 µM of the first is lower: 1 to 25% for the first, 25 to 50% for the second.

First: COc1ccnc(-c2nc(O)c3c(C(F)(F)F)csc3n2)c1 [drawing 1186]
Second: Oc1nc(-c2ccccn2)nc2sc3c(c12)CCNC3 [drawing 1194]
The inhibition at 10 µM of the first is lower: 1 to 25% for the first, 25 to 50% for the second.

`Nc1nc(-c2ccccn2)nc2ccsc12` [drawing 1187] and `Oc1nc(-c2ccccn2)nc2c(-c3cc(Cl)cc(Cl)c3)csc12` [drawing 1192] fall in the same range of inhibition at 10 µM: 1 to 25% for the first, 1 to 25% for the second.

First: O=C(c1cc2nc(-c3ccccn3)nc(O)c2s1)N1CCN(c2ccccc2)CC1 [drawing 1188]
Second: COCc1ccc(-c2csc3c(O)nc(-c4ccccn4)nc23)cc1F [drawing 1190]
The inhibition at 10 µM of the first is lower: 1 to 25% for the first, 76 to 100% for the second.

First: Cc1ccc(OC2CCCC2)c(-c2csc3c(O)nc(-c4ccccn4)nc23)c1 [drawing 1189]
Second: Oc1nc(-c2ccccn2)nc2c(-c3cccc4c3OCO4)csc12 [drawing 1193]
The inhibition at 10 µM of the first is lower: 25 to 50% for the first, 76 to 100% for the second.

First: CC(C)(C)c1ccc(-c2csc3c(O)nc(-c4ccccn4)nc23)cc1 [drawing 1191]
Second: COc1ccc(CCNC(=O)c2csc3nc(-c4ccccn4)nc(N4CCS(=O)(=O)CC4)c23)cn1 [drawing 1195]
The inhibition at 10 µM of the first is higher: 76 to 100% for the first, 1 to 25% for the second.

`O=C(NCCc1cnc(O)nc1)c1csc2nc(-c3ccccn3)nc(N3CCS(=O)(=O)CC3)c12` [drawing 1196] and `N#Cc1ccc2c(c1)CCCC2C(=O)Nc1ccnc(-c2ccccn2)n1` (stereo not drawn) [drawing 1197] fall in the same range of inhibition at 10 µM: 1 to 25% for the first, 1 to 25% for the second.

Same assay, conditions: Homo sapiens, at 30 μM

`COc1cccc(C2CN(C(=O)c3csc4c(O)nc(-c5ccccn5)nc34)CCO2)c1` (stereo not drawn) [drawing 1126] and `O=C(c1csc2c(O)nc(-c3ccccn3)nc12)N1CCOC(c2cccc(F)c2)C1` (stereo not drawn) [drawing 1128] fall in the same range of inhibition at 30 µM: 1 to 25% for the first, 1 to 25% for the second.

`O=C(c1csc2c(O)nc(-c3ccccn3)nc12)N1CCOC(c2ccc(Cl)cc2)C1` (stereo not drawn) [drawing 1127] and `O=C(c1csc2c(O)nc(-c3ccccn3)nc12)N1CCOC(c2ccc(F)cc2)C1` (stereo not drawn) [drawing 1134] fall in the same range of inhibition at 30 µM: 1 to 25% for the first, 1 to 25% for the second.

First: O=C(c1csc2c(O)nc(-c3ccccn3)nc12)N1CCOC(c2nccs2)C1 (stereo not drawn) [drawing 1129]
Second: O=C(c1csc2c(O)nc(-c3ccccn3)nc12)N1CCOC(c2ccccc2Cl)C1 (stereo not drawn) [drawing 1149]
The inhibition at 30 µM of the first is higher: 25 to 50% for the first, 1 to 25% for the second.

`O=C(c1csc2c(O)nc(-c3ccccn3)nc12)N1CCNC(c2cccc(F)c2)C1` (stereo not drawn) [drawing 1130] and `COc1cccc(C2CN(C(=O)c3csc4c(O)nc(-c5ccccn5)nc34)CCN2)c1` (stereo not drawn) [drawing 1150] fall in the same range of inhibition at 30 µM: 1 to 25% for the first, 1 to 25% for the second.

`COCCCCNC(=O)c1csc2nc(-c3ccccn3)nc(N3CCN(C)CC3)c12` [drawing 1131] and `COCCCCNC(=O)c1csc2nc(-c3ccccn3)nc(N3CCOCC3)c12` [drawing 1156] fall in the same range of inhibition at 30 µM: 1 to 25% for the first, 1 to 25% for the second.

`FC(F)(F)c1csc2nc(-c3ccccn3)nc(N3CCOCC3)c12` [drawing 1132] and `N#Cc1csc2nc(-c3ccccn3)nc(N3CCOCC3)c12` [drawing 1178] fall in the same range of inhibition at 30 µM: 1 to 25% for the first, 1 to 25% for the second.

Compared with `COc1ccnc(-c2nc(O)c3c(Br)csc3n2)c1` [drawing 1133], `COc1ccnc(-c2nc(O)c3c(Cl)csc3n2)c1` [drawing 1162] is lower in inhibition at 30 µM: 76 to 100% for the first, 1 to 25% for the second.

Compared with `CC(C)(C(=O)Nc1ccnc(-c2ccccn2)n1)c1ccc(C#N)cc1` [drawing 1135], `CC(C(=O)Nc1ccnc(-c2ccccn2)n1)c1ccc(C#N)cc1` (stereo not drawn) [drawing 1158] is lower in inhibition at 30 µM: 25 to 50% for the first, 1 to 25% for the second.

First: CC(C)(C(=O)Nc1nc(-c2ccccn2)nc2sccc12)c1ccc(C#N)cc1 [drawing 1136]
Second: N#Cc1ccc(CC(=O)Nc2nc(-c3ccccn3)nc3sccc23)cc1 [drawing 1176]
The inhibition at 30 µM of the first is lower: 1 to 25% for the first, 76 to 100% for the second.

`O=C(c1csc2c(O)nc(-c3ccccn3)nc12)N1CCN(c2cccc(F)c2)CC1` [drawing 1137] and `N#Cc1cccc(N2CCN(C(=O)c3csc4c(O)nc(-c5ccccn5)nc34)CC2)c1` [drawing 1139] fall in the same range of inhibition at 30 µM: 1 to 25% for the first, 1 to 25% for the second.

`O=C(c1csc2c(O)nc(-c3ccccn3)nc12)N1CCN(c2ccc(F)cc2)CC1` [drawing 1138] and `O=C(c1csc2c(O)nc(-c3ccccn3)nc12)N1CCN(c2ccc(F)cc2F)CC1` [drawing 1142] fall in the same range of inhibition at 30 µM: 1 to 25% for the first, 1 to 25% for the second.

`COc1cc(OC)cc(N2CCN(C(=O)c3csc4c(O)nc(-c5ccccn5)nc34)CC2)c1` [drawing 1140] and `COc1ccc(N2CCN(C(=O)c3csc4c(O)nc(-c5ccccn5)nc34)CC2)cc1O` [drawing 1164] fall in the same range of inhibition at 30 µM: 1 to 25% for the first, 1 to 25% for the second.

First: COc1cc(N2CCN(C(=O)c3csc4c(O)nc(-c5ccccn5)nc34)CC2)cc(OC)c1OC [drawing 1141]
Second: COc1cc(N2CCN(C(=O)c3csc4c(O)nc(-c5ccccn5)nc34)CC2)ccc1O [drawing 1179]
The inhibition at 30 µM of the first is lower: 1 to 25% for the first, 25 to 50% for the second.

Compared with `CC1CN(c2ccccc2)CCN1C(=O)c1csc2c(O)nc(-c3ccccn3)nc12` (stereo not drawn) [drawing 1143], `CC(c1ccccc1)N1CCN(C(=O)c2csc3c(O)nc(-c4ccccn4)nc23)CC1` (stereo not drawn) [drawing 1166] is lower in inhibition at 30 µM: 51 to 75% for the first, 1 to 25% for the second.

First: O=C(c1csc2c(O)nc(-c3ccccn3)nc12)N1CCN(Cc2ccccc2)CC1 [drawing 1144]
Second: O=C(c1csc2c(O)nc(-c3ccccn3)nc12)N1CCN(Cc2ccc(O)cc2)CC1 [drawing 1146]
The inhibition at 30 µM of the first is lower: 1 to 25% for the first, 25 to 50% for the second.

`COc1cccc(CN2CCN(C(=O)c3csc4c(O)nc(-c5ccccn5)nc34)CC2)c1` [drawing 1145] and `O=C(c1csc2c(O)nc(-c3ccccn3)nc12)N1CCN(Cc2ccc(O)c(Cl)c2)CC1` [drawing 1147] fall in the same range of inhibition at 30 µM: 25 to 50% for the first, 25 to 50% for the second.

`COc1ccccc1C1CN(C(=O)c2csc3c(O)nc(-c4ccccn4)nc23)CCO1` (stereo not drawn) [drawing 1148] and `Cc1ccccc1C1CN(C(=O)c2csc3c(O)nc(-c4ccccn4)nc23)CCN1` (stereo not drawn) [drawing 1152] fall in the same range of inhibition at 30 µM: 1 to 25% for the first, 1 to 25% for the second.

First: COc1ccc(C2CN(C(=O)c3csc4c(O)nc(-c5ccccn5)nc34)CCN2)cc1 (stereo not drawn) [drawing 1151]
Second: O=C(c1csc2c(O)nc(-c3ccccn3)nc12)N1CCNC(c2ccc(F)cc2)C1 (stereo not drawn) [drawing 1167]
The inhibition at 30 µM of the first is higher: 25 to 50% for the first, 1 to 25% for the second.

`O=C(c1csc2c(O)nc(-c3ccccn3)nc12)N1CCNC(c2ccccc2F)C1` (stereo not drawn) [drawing 1153] and `O=C(c1csc2c(O)nc(-c3ccccn3)nc12)N1CCNC(Cc2ccccc2)C1` (stereo not drawn) [drawing 1154] fall in the same range of inhibition at 30 µM: 1 to 25% for the first, 1 to 25% for the second.

`COc1cc(CCN(C)C(=O)c2csc3nc(-c4ccccn4)nc(N4CCOCC4)c23)ccn1` [drawing 1155] and `O=C(NCCc1ccc(O)nc1)c1csc2nc(-c3ccccn3)nc(N3CCOCC3)c12` [drawing 1168] fall in the same range of inhibition at 30 µM: 1 to 25% for the first, 1 to 25% for the second.

Compared with `COCCN(CCOC)c1nc(-c2ccccn2)nc2scc(C(=O)NCCc3ccc(OC)nc3)c12` [drawing 1157], `COCCN(CCOC)c1nc(-c2ccccn2)nc2scc(C(=O)NCCc3cnc(O)nc3)c12` [drawing 1171] is higher in inhibition at 30 µM: 1 to 25% for the first, 25 to 50% for the second.

`COc1ccc2c(c1)CCC2C(=O)Nc1ccnc(-c2ccccn2)n1` (stereo not drawn) [drawing 1159] and `COc1ccc2c(c1)CCC2C(=O)Nc1nc(-c2ccccn2)nc2sccc12` (stereo not drawn) [drawing 1177] fall in the same range of inhibition at 30 µM: 1 to 25% for the first, 1 to 25% for the second.

First: Cc1cnc(-c2ccccn2)nc1NC(=O)C(C)c1ccc(C#N)cc1 (stereo not drawn) [drawing 1160]
Second: Cc1cnc(-c2ccccn2)nc1NC(=O)Cc1ccc(C#N)cc1 [drawing 1173]
The inhibition at 30 µM of the first is lower: 1 to 25% for the first, 51 to 75% for the second.

`N#Cc1ccc(COCC(=O)Nc2nc(-c3ccccn3)nc3sccc23)cc1` [drawing 1161] and `Cc1cnc(-c2ccccn2)nc1NC(=O)COCc1ccc(C#N)cc1` [drawing 1174] fall in the same range of inhibition at 30 µM: 1 to 25% for the first, 1 to 25% for the second.

`COc1cnc(CN)[nH]c1=O` [drawing 1163] and `COc1cnc(CNC(=O)Cn2cnc3nc(-c4ccccn4)nc(N4CCOCC4)c32)[nH]c1=O` [drawing 1183] fall in the same range of inhibition at 30 µM: 1 to 25% for the first, 1 to 25% for the second.

First: O=C(c1csc2c(O)nc(-c3ccccn3)nc12)N1CCN(c2ccc(O)c(Cl)c2)CC1 [drawing 1165]
Second: COC(=O)c1csc2c(O)nc(-c3ccccn3)nc12 [drawing 1182]
The inhibition at 30 µM of the first is lower: 1 to 25% for the first, 25 to 50% for the second.

`O=C(NCCc1cnc(O)nc1)c1csc2nc(-c3ccccn3)nc(N3CCOCC3)c12` [drawing 1169] and `CS(=O)(=O)CCCNC(=O)c1csc2nc(-c3ccccn3)nc(N3CCOCC3)c12` [drawing 1170] fall in the same range of inhibition at 30 µM: 25 to 50% for the first, 25 to 50% for the second.

`COc1cc(COCC(=O)Nc2ccnc(-c3ccccn3)n2)ccn1` [drawing 1172] and `Cc1cnc(-c2ccccn2)nc1NC(=O)COCc1ccnc(O)c1` [drawing 1175] fall in the same range of inhibition at 30 µM: 25 to 50% for the first, 25 to 50% for the second.

`Nc1nc(-c2ccccn2)nc2sccc12` [drawing 1180] and `Nc1nc(-c2ccccn2)nc2scc(-c3ccccc3)c12` [drawing 1181] fall in the same range of inhibition at 30 µM: 1 to 25% for the first, 1 to 25% for the second.

`NC(=O)Cn1cnc2nc(-c3ccccn3)nc(N3CCOCC3)c21` [drawing 1184] gave an inhibition at 30 µM of 1 to 25%.

Source: patent US10940139B2, “Compounds that interact with the Ras superfamily for the treatment of cancers, inflammatory diseases, rasopathies, and fibrotic disease” (Shy Therapeutics LLC, priority 2017, dated 2021)
